# “Also recorded” adds a separate entry of the source.
# Experiments:
# [1] = tested on: prostaglandin-endoperoxide synthase 1 (PTGS1); experiment: Affymetrix gene array on skin explants, PTGS1; type: cell-based, human; details: topical, 24 hours
# Text: (§1) Subcutaneous fat from full thickness skin, obtained from surgical waste material from breast reduction procedures, was removed with a scalpel. Three healthy Caucasian female donors were used for this study. The female donors differed from those of the skin-treatment study outlined previously 8 mm punch biopsies were taken from the skin (and these biopsies are now referred to as skin explants). Skin explants were put on Milipore cell culture inserts (12 mm diameter). Inserts containing skin explants were put in 6-well plates (one insert/well) and 1 mL of supplemented keratinocyte medium (ex Cascade Biologics) was added to each well. A tretinoin-containing cream (Aberela® ex. Janssen): 0.05% tretinoin in the cream, was applied topically to each explant (5 μL/cm^2) using a positive displacement pipette. A placebo cream without tretinoin was used as a control. The skin explants were incubated with tretinoin for 24 hours at 37° C. in 5% CO2-humidified air.
# (§2) RNA concentration was measured with ND-1000 spectrophotometer (ex. NanoDrop Technologies) and RNA quality was evaluated using the Agilent 2100 bioanalyzer system (ex. Agilent Technologies). 250 nanograms of total RNA from each skin or skin explant sample was used to prepare biotinylated fragmented cRNA according to the GeneChip® 3′IVT Express Kit Manual (PN702646 Rev 1, ex. Affymetrix Inc.). Affymetrix GeneChip® expression arrays (Human Genome U133 Plus 2.0) were hybridized for 16 hours in a 45° C. incubator, rotated at 60 rpm. According to the GeneChip Expression Wash, Stain and Scan Manual (PN 702731 Rev 2, ex. Affymetrix Inc.) the arrays were washed and stained using the Fluidics Station 450 and scanned using the GeneChip® Scanner 3000 7G.
# (§3) Analysis of the gene expression data was carried out in the statistical computing language R (http://www.r-project.org) using packages available from the Bioconductor project (www.bioconductor.org). The raw data was normalized using the robust multi-array average (RMA) method. In order to search for differentially expressed genes between the X samples and the Y samples group an empirical Bayes moderated t-test was then applied using the ‘limma’ package.
# (§4) Skin explants were obtained as detailed in Example 3.1.
# [2] = tested on: steroid 5 alpha-reductase 3 (SRD5A3); experiment: Affymetrix gene array on skin explants, SRD5A3; type: cell-based, human; details: topical, 24 hours
# Text: as §1, §2, §3, §4
# interleukin-6 [IL-6] = experiment: Interleukin-6 production in PMA-stimulated dermal fibroblasts; type: cell-based, human; details: PMA 10 nM (FIG. 7)
# Method: Human dermal fibroblast cell cultures were prepared according to Example 3.1. To induce inflammation in the cells PMA (phorbol myristate acetate) (ex. Sigma) was used at a concentration of 10 nM. […] The cells were stimulated for 24 h and the culture supernatant was collected and stored at −20° C. until further analysis
# Experimental method as outlined in Example 3.1 was modified in order to analyze IL-6 levels extracted from dermal fibroblasts stimulated for 6 days with all-trans retinoic acid, retinol, arachidonic acid, β-aescin, and […] (ethyl ester) at a range of concentrations. Experiments were performed in duplicates.
# [3] = tested on: Fibroblast growth factor (FGF); experiment: FGF production in human skin explants; type: cell-based; details: topical (FIG. 13)
# Method: (§5) Full thickness skin from surgical waste material from breast reductions was collected. Subcutaneous fat was removed with a scalpel. 8 mm punch biopsies was taken from the skin and referred to as skin explants. Thereafter, the explants were put on Millipore cell culture inserts (12 mm in diameter). Inserts containing skin explants were put in 6-well plate (1 insert/well) and 1 mL of supplemented keratinocyte medium (Cascade Biologics) was added to each well to allow survival and nutrition of the explants. […] Supernatants were thereafter collected and analyzed for GM-CSF production.
# Human Skin Explants were Obtained and Treated as Described in Example 7.3.
# The methodology described in Example 3.1 was adapted in order analyze FGF production in skin explants.
# pro-collagen type 1 = experiment: Pro-collagen 1 ELISA in dermal fibroblasts; type: cell-based, human; details: 24 hour stimulation, 3 donors (FIG. 5)
# Method: MMP-inhibitory activity for compounds of the invention was also assessed on human dermal fibroblasts. Dermal fibroblasts were cultured in Dulbecco's Modified Eagle Medium (DMEM) (Invitrogen) with 10% EBS (ex. Invitrogen) and 1% Pencillin/Streptavidin (ex. Invitrogen). To induce inflammation in the cells, PMA (phorbol myristate acetate) (ex. Sigma) was used at a concentration of 10 nM. […] The cells were stimulated for 24 h and the culture supernatant was collected and stored at −20° C. until further analysis.
# Fibroblast cells were cultured as outlined in Example 3.1 and treated with compounds of the invention The secretion of pro-collagen in the cell culture supernatants were analyzed using Pro-Collagen 1 specific ELISA (#8003; ex. Quidel). Results were compared with cell culture supernatants from DMSO vehicle treated cells. The assays utilized a 96-well microplate format and were processed according to the manufacturer's protocol, including generation of a standard curve prepared in background assay diluents. Absorbance of the assay dye was read at a Synergy HT plate reader. Values that fell within the linear range of the calibration assay were accepted. Quantities were determined by comparison to standard curve obtained for pro-collagen 1.
# [4] = tested on: tachykinin, precursor 1 (TAC1); experiment: Affymetrix gene array on skin explants, TAC1; type: cell-based, human; details: topical, 24 hours
# Text: as §1, §2, §3, §4
# GM-CSF = experiment: UV-induced GM-CSF expression in skin explants; type: cell-based, human; details: topical 1% w/w solution in propylene glycol, 120 mJ/cm^2 UVA and UVB (FIG. 9)
# Method: as §5
# MMP3 = experiment: PMA inflammation induced MMP3 production in human dermal fibroblasts; type: cell-based; details: PMA 10 nM, 24 h (FIG. 4)
# Method: MMP-inhibitory activity for compounds of the invention was also assessed on human dermal fibroblasts. Dermal fibroblasts were cultured in Dulbecco's Modified Eagle Medium (DMEM) (Invitrogen) with 10% EBS (ex. Invitrogen) and 1% Pencillin/Streptavidin (ex. Invitrogen). To induce inflammation in the cells, PMA (phorbol myristate acetate) (ex. Sigma) was used at a concentration of 10 nM. […] The cells were stimulated for 24 h and the culture supernatant was collected and stored at −20° C. until further analysis. Fluorokine MultiAnalyte Profiling (xMAP) using the BioPlex (ex. Biorad) dual laser flow-based sorting and detection analyzers manufactured by Luminex corporation (Luminex, Austin, Tex.) was employed to measure levels of MMP in conditioned media samples of stimulated dermal fibroblasts. The technology incorporated polystyrene microspheres dyed internally with differing ratios of two spectrally distinct fluorophores to create a family of different spectrally addressed bead sets. The bead utilized in this study was conjugated with a biotinylated capture antibody specific for a unique MMPs, The assay was performed without antecedent serum depletion. Results were compared with medium from cells treated with vehicle only (DMSO). The assays utilized a 96-well microplate format and were processed according to the manufacturer's protocol, including generation of a standard curve for each target prepared in background assay diluents. Values that fell within the linear range of the calibration assay were accepted. Samples were analyzed using the Bio-Plex suspension array system and Bio-Plex Manager software 4.0 (Bio-Rad Laboratories, Hercules, Calif.). Quantities were determined by comparison to standard curves obtained for the different MMP.
# [5] = tested on: hydroxysteroid (17-beta) dehydrogenase 2 (HSD17B2); experiment: Affymetrix gene array on skin explants, HSD17B2; type: cell-based, human; details: topical, 24 hours
# Text: as §1, §2, §3, §4
SMILES,PTGS1 gene expression [1],SRD5A3 gene expression [2],interleukin-6 production (interleukin-6 [IL-6]),FGF production [3],production of pro-collagen type 1 (pro-collagen type 1),TAC1 gene expression [4],UV-induced expression of GM-CSF (GM-CSF),inhibition of PMA inflammation induced MMP3 production (MMP3),HSD17B2 gene expression [5],FGF production ([3]; listed as naringenin)
"C=C1C[C@]23C[C@@]1(O)CC[C@H]2[C@@]12C=C[C@H](O)[C@@](C)(C(=O)O1)[C@@H]2[C@@H]3C(=O)O [Gibberellic acid, (3S,3aS,4S,4aS,7S,9aR,9bR,12S)-7,12-dihydroxy-3-methyl-6-methylene-2-oxoperhydro-4a,7-methano-9b,3-propenoazuleno[1,2-b]furan-4-carboxylic acid]",−1.11 log 2−ratio,−0.75 log 2−ratio,inhibit interleukin-6 production,higher FGF production than retinoic acid; also recorded: Stimulation of FGF production,significantly increase,−0.62 log 2−ratio,suppression of UV-induced expression of GM-CSF,inhibition,−0.52 log 2−ratio,
"CC(=O)N[C@@H](CC(=O)O)C(=O)O [N-Acetyl aspartic acid, (2S)-2-Acetamidobutanedioic acid]",−0.20 log 2−ratio,−1.54 log 2−ratio,inhibit interleukin-6 production,higher FGF production than retinoic acid; also recorded: Stimulation of FGF production,significantly increase,−1.23 log 2−ratio,suppression of UV-induced expression of GM-CSF,inhibition,−1.46 log 2−ratio,
"O=C1C[C@@H](c2ccc(O)cc2)Oc2cc(O)cc(O)c21 [Naringenin, (S)-2,3-Dihydro-5,7-dihydroxy-2-(4-hydroxyphenyl)-4H-1-benzopyran-4-one]",−3.51 log 2−ratio,1.25 log 2−ratio,inhibit interleukin-6 production,higher FGF production than retinoic acid,convincing trend towards increasing,−2.78 log 2−ratio,suppression of UV-induced expression of GM-CSF,inhibition,−0.83 log 2−ratio,Stimulation of FGF production
